Test results published in ChEMBL document CHEMBL1821720, “Discovery and hit-to-lead optimization of novel allosteric glucokinase activators” (Bioorg Med Chem Lett, 2011).

How the values were obtained:
[1] = biological target: T1, Hexokinase-4 (Homo sapiens) (UniProt P35557); assay: Activation of human recombinant glucokinase expressed in Escherichia coli coexpressing G6PDH at 10 uM using 5 mM glucose measured as ratio of enzyme activation in compound treated to Ro-28-1675 by G6PDH coupled continuous spectrophotometric assay
T1 sequence (whole entry): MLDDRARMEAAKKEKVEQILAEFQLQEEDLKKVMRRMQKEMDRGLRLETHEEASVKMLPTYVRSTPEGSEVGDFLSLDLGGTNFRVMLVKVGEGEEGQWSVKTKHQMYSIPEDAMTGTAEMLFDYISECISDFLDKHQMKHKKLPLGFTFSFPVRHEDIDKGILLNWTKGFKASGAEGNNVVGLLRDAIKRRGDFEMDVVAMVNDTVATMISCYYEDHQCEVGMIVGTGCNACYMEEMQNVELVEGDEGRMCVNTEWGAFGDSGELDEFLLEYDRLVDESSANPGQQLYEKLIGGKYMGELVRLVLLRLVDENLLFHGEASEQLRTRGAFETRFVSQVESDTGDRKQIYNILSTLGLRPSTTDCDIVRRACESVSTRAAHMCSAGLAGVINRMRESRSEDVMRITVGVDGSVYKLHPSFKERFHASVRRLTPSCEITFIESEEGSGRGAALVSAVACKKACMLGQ

[2] = biological target: T1, Hexokinase-4 (Homo sapiens); assay: Activation of human recombinant glucokinase expressed in Escherichia coli coexpressing G6PDH at 10 uM using 20 mM glucose measured as ratio of enzyme activation in compound treated to Ro-28-1675 by G6PDH coupled continuous spectrophotometric assay
[3] = biological target: T1, Hexokinase-4 (Homo sapiens); assay: Activation of human recombinant glucokinase expressed in Escherichia coli coexpressing G6PDH at 10 uM using 20 mM glucose measured as ratio of enzyme activation in treated to untreated control by G6PDH coupled continuous spectrophotometric assay
[4] = biological target: T1, Hexokinase-4 (Homo sapiens); assay: Activation of human recombinant glucokinase expressed in Escherichia coli coexpressing G6PDH at 10 uM using 5 mM glucose measured as ratio of enzyme activation in treated to untreated control by G6PDH coupled continuous spectrophotometric assay

| Ratio [1] | Ratio [2] | Ratio [3] | Ratio [4] | Structure (SMILES) |
| --- | --- | --- | --- | --- |
| 0.004 | -0.025 | 0.96 | 1.01 | Cc1noc(C)c1C(=O)Nc1nc2c(s1)CCCC2 |
| 0.34 | 0.418 | 1.58 | 2.29 | Cc1oc(-c2ccccc2C(N)=O)cc1C(=O)Nc1nc2c(s1)CCC2 |
| 0.537 | 0.363 | 1.41 | 2.76 | CCc1sc(-c2ccccc2S(C)(=O)=O)cc1C(=O)Nc1nc2c(s1)CCC2 |
| 0.287 | 0.038 | 1.06 | 2.12 | Cc1cc(C(=O)Nc2nc3c(s2)CCCC3)c(C)s1 |
| -0.002 | -0.09 | 0.85 | 0.99 | Cc1oc(-c2cccc(C#N)c2)cc1C(=O)Nc1nc2c(s1)CCC2 |
| 0.312 | 0.305 | 1.51 | 2.35 | CC(=O)OCc1cc(C(=O)Nc2nc3c(s2)CCC3)c(C)o1 |
| 0.049 | 0.029 | 1.06 | 1.35 | O=C(Nc1nc(C2CCCCC2)cs1)c1ccccc1 |
| 0 | -0.039 | 0.93 | 1 | CC(=O)c1cccc(-c2cc(C(=O)Nc3nc4c(s3)CCC4)c(C)o2)c1 |
| 0.008 | 0.014 | 1.03 | 1.06 | O=C(Nc1nc2c(s1)CCCC2)C1CCCO1 (stereo not given) |
| 0.297 | -0.041 | 0.95 | 2.16 | CCc1sc(-c2ccccc2S(C)(=O)=O)cc1C(=O)Nc1nc2c(s1)CCCC2 |
| 0.145 | 0.214 | 1.26 | 1.57 | CC(=O)c1ccccc1-c1cc(C(=O)Nc2nc3c(s2)CCCC3)cs1 |
| 0.554 | 0.392 | 1.49 | 3.17 | CC(=O)c1ccccc1-c1cc(C(=O)Nc2nc3c(s2)CCCC3)c(C)s1 |
| 0.312 | 0.182 | 1.23 | 2.22 | CCc1sc(-c2ccccc2C(C)=O)cc1C(=O)Nc1nc2c(s1)CCCC2 |
| 0.048 | 0.057 | 1.1 | 1.18 | Cc1oc(-c2ccccn2)cc1C(=O)Nc1nc2c(s1)CCC2 |
| -0.019 | -0.047 | 0.92 | 0.94 | CC(=O)Oc1cccc(-c2cc(C(=O)Nc3nc4c(s3)CCC4)c(C)o2)c1 |
| -0.017 | -0.069 | 0.9 | 0.94 | Cc1oc(-c2cccc(O)c2)cc1C(=O)Nc1nc2c(s1)CCC2 |
| 0.177 | 0.095 | 1.17 | 1.88 | Cc1cc(C(=O)Nc2nc3c(s2)CCCC3)cs1 |
| 0.215 | 0.072 | 1.14 | 1.99 | Cc1cc(C(=O)Nc2nc3c(s2)CCCC3)c(C)o1 |
| 0.446 | 0.446 | 1.5 | 2.46 | CCc1sc(-c2ccccc2C(C)=O)cc1C(=O)Nc1nc2c(s1)CCC2 |
| -0.012 | -0.08 | 0.87 | 0.95 | Cc1oc(-c2ccccc2O)cc1C(=O)Nc1nc2c(s1)CCC2 |
| 0.001 | -0.032 | 0.95 | 1 | Cc1cc(C(=O)Nc2nc3c(s2)CCC3(C)C)c(C)o1 |
| 0.193 | 0.361 | 1.41 | 1.64 | CCc1oc(-c2ccccc2C(C)=O)cc1C(=O)Nc1nc2c(s1)CCC2 |
| 0.069 | 0.05 | 1.08 | 1.3 | Cc1oc(CO)cc1C(=O)Nc1nc2c(s1)CCC2 |

Further lines, the molecule ahead of its results:

| Structure (SMILES) | Ratio [1] | Ratio [2] | Ratio [3] | Ratio [4] |
| --- | --- | --- | --- | --- |
| COc1ccc(-c2cc(C(=O)Nc3nc4c(s3)CCC4)c(C)o2)cc1OC | -0.024 | -0.099 | 0.83 | 0.9 |
| CCc1oc(-c2ccccc2C(C)=O)cc1C(=O)Nc1nc2c(s1)CCCC2 | 0.278 | 0.194 | 1.25 | 1.89 |
| Cc1oc(-c2ccccc2S(C)(=O)=O)cc1C(=O)Nc1nc2c(s1)CCC2 | 0.504 | 0.47 | 1.72 | 2.81 |
| CC(=O)CCc1cc(C(=O)Nc2nc3c(s2)CCC3)c(C)o1 | 0.29 | 0.287 | 1.44 | 2.07 |
| Cc1oc(-c2cccnc2)cc1C(=O)Nc1nc2c(s1)CCC2 | 0.021 | 0.053 | 1.08 | 1.09 |
| Cc1cc(C(=O)Nc2nc3c(s2)CCCCC3)c(C)o1 | 0.127 | 0.028 | 1.05 | 1.53 |
| COCCCc1cc(C(=O)Nc2nc3c(s2)CCC3)c(C)o1 | 0.282 | 0.331 | 1.51 | 1.98 |
| Cc1oc(-c2ccccc2[N+](=O)[O-])cc1C(=O)Nc1nc2c(s1)CCC2 | 0.244 | 0.267 | 1.46 | 1.89 |
| Cc1oc(-c2ccccc2C(=O)N(C)C)cc1C(=O)Nc1nc2c(s1)CCC2 | -0.011 | -0.026 | 0.96 | 0.96 |
| O=C(Nc1nc2c(s1)CCCC2)c1ccncc1 | 0.002 | -0.033 | 0.93 | 1.01 |
| COC(=O)c1ccccc1-c1cc(C(=O)Nc2nc3c(s2)CCC3)c(C)o1 | 0.098 | 0.054 | 1.1 | 1.36 |
| Cc1cc(C(=O)Nc2nc3c(o2)CCCC3)c(C)o1 | -0.025 | -0.048 | 0.92 | 0.9 |
| CC(=O)c1ccccc1-c1cc(C(=O)Nc2nc3c(s2)CCC3)c(C)o1 | 0.329 | 0.384 | 1.63 | 2.43 |
| COC(=O)c1ccc(NC(=O)c2cc(C)oc2C)nc1 | 0.076 | 0.114 | 1.19 | 1.33 |
| CC(=O)c1ccccc1-c1cc(C(=O)Nc2nc3c(s2)CCC3)cs1 | 0.274 | 0.296 | 1.45 | 2.02 |
| COc1ccccc1-c1cc(C(=O)Nc2nc3c(s2)CCC3)c(C)o1 | -0.023 | -0.046 | 0.93 | 0.92 |

| Structure (SMILES) | Ratio [1] | Ratio [2] | Ratio [3] | Ratio [4] |
| --- | --- | --- | --- | --- |
| CC(=O)c1cc(C(=O)Nc2nc3c(s2)CCC3)c(C)o1 | 0.015 | -0.003 | 0.99 | 1.06 |
| CC(=O)c1ccccc1-c1cc(C(=O)Nc2nc3c(s2)CCC3)co1 | 0.207 | 0.275 | 1.42 | 1.77 |
| O=C(Nc1nc2c(s1)CCCC2)c1ccccn1 | 0.019 | -0.004 | 0.99 | 1.06 |
| CCc1oc(-c2ccccc2S(C)(=O)=O)cc1C(=O)Nc1nc2c(s1)CCC2 | 0.586 | 0.343 | 1.39 | 2.92 |
| O=C(Nc1nc2c(s1)CCCC2)c1cccnc1 | 0.012 | -0.015 | 0.97 | 1.06 |
| COCc1cc(C(=O)Nc2nc3c(s2)CCC3)c(C)o1 | 0.212 | 0.246 | 1.41 | 1.92 |
| Cc1sc(-c2ccccc2S(C)(=O)=O)cc1C(=O)Nc1nc2c(s1)CCC2 | 0.642 | 0.495 | 1.56 | 3.11 |
| Cc1cc(C(=O)Nc2nc3c(s2)CCCC3)no1 | 0.022 | 0.036 | 1.06 | 1.11 |
| CCc1nc(NC(=O)c2cc(C)oc2C)sc1CC | 0.022 | -0.022 | 0.96 | 1.09 |
| CC(=O)NCc1cc(C(=O)Nc2nc3c(s2)CCC3)c(C)o1 | 0.105 | 0.081 | 1.11 | 1.4 |
| Cc1oc(-c2ccccc2)cc1C(=O)Nc1nc2c(s1)CCCC2 | -0.002 | -0.062 | 0.89 | 0.99 |
| COC(=O)CCc1cc(C(=O)Nc2nc3c(s2)CCC3)c(C)o1 | 0.151 | 0.154 | 1.23 | 1.56 |
| Cc1oc(CCC(=O)N(C)C)cc1C(=O)Nc1nc2c(s1)CCC2 | 0.178 | 0.187 | 1.29 | 1.62 |
| CCc1oc(-c2ccccc2C(N)=O)cc1C(=O)Nc1nc2c(s1)CCC2 | 0.453 | 0.509 | 1.61 | 2.61 |
| Nc1ccc2sc(NC(=O)c3ccccc3)nc2c1 | 0.087 | -0.051 | 1.02 | 1.6 |
| Cc1cc(C(=O)Nc2nc3c(s2)C2CCC3C2)c(C)o1 (stereo not given) | 0.059 | 0.012 | 1.02 | 1.25 |
